Reference: patent publication US9394297B2, “Amides as pim inhibitors” (AMGEN INC., priority 2012, dated 2016)
Like-named read-outs stand apart in the source and are kept apart here.

How the values were obtained:
KMS-12-BM cell lines = assay: KMS12 #2 flow cytometry assay (phospho-BAD Ser112); type: cell-based; settings: Homo sapiens, 110 min, read-out: KMS-12-Flow IC50 IP
Pim-1 = Pim-1 (Homo sapiens (Human), UniProt P11309); assay: Pim-Mn enzyme assay (HTRF, 384-well), Pim-1; type: biochemical; settings: read-out: Pim-1-Mn IC50 IP
Chain of Pim-1 (P11309 whole entry): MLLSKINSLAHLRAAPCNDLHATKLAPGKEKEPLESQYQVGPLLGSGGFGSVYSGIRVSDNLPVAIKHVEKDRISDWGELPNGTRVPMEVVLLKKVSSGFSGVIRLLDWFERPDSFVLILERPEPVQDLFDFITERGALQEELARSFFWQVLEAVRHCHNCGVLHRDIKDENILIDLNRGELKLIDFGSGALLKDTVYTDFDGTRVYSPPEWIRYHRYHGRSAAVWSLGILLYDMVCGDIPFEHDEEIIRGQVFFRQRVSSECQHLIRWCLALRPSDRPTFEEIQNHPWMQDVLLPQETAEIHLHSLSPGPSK

Pim-2 = Pim-2 (Homo sapiens (Human), UniProt Q9P1W9); assay: Pim-Mn enzyme assay (HTRF, 384-well), Pim-2; type: biochemical; settings: read-out: Pim-2-Mn IC50 IP
Chain of Pim-2 (Q9P1W9 whole entry): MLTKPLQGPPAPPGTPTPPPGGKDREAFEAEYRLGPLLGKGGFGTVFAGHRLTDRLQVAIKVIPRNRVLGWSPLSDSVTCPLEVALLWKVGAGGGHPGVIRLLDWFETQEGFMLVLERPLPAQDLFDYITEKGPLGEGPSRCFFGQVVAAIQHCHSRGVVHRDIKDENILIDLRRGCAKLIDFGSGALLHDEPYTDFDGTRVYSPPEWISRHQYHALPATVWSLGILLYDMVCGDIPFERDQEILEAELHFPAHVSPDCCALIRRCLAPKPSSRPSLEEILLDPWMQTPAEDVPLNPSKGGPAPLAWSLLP

[1] = KMS-12-BM cells, pBAD Ser112 by flow cytometry, 110 min with compound
[2] = Pim-1 enzyme 5 pM, ATP 1.5 μM, BAD (S112) 0.5 μM, HTRF, 22-point curve
[3] = Pim-2 enzyme 0.5 pM, ATP 1.5 μM, BAD (S112) 0.5 μM, HTRF, 22-point curve

Row | IC50 (KMS-12-BM cell lines; [1]) [nM] | IC50 (Pim-1; [2]) [nM] | IC50 (Pim-2; [3]) [nM] | Structure (SMILES) | IC50 (Pim-2) [nM] | IC50 (Pim-1) [nM] | IC50 (KMS-12-BM cell lines; KMS-12-BM) [nM]
1 | 558 | 2.12 | 2.26 | CC(C)(C)Nc1nc2c(-c3cc4c([nH]3)CCNC4=O)cccc2nc1CO [Example 306, 2-(3-(tert-butylamino)-2-(hydroxymethyl)quinoxalin-5-yl)-6,7-dihydro-1H-pyrrolo[3,2-c]pyridin-4(5H)-one] | – | – | –
2 | 67.1 | 0.414 | 0.53 | Cc1nc2cccc(-c3cc4c([nH]3)[C@@H](CO)NC4=O)c2nc1NC1(C)CC1 [Example 361, (S)-6-(hydroxymethyl)-2-(2-methyl-3-((1-methylcyclopropyl)amino)quinoxalin-5-yl)-5,6-dihydropyrrolo[3,4-b]pyrrol-4 (1H)-one] | – | – | –
3 | 13300 | 30.8 | 33.7 | Cc1nc2ccnc(-c3cc4c([nH]3)CCNC4=O)c2nc1NC(C)(C)C [Example 368, 2-(3-(tert-butylamino)-2-methylpyrido[3,4-b]pyrazin-5-yl)-6,7-dihydro-1H-pyrrolo[3,2-c]pyridin-4(5H)-one] | – | – | –
4 | 18.6 | 0.0282 | 0.0378 | Cc1nc2ccc(F)c(-c3cc4c([nH]3)[C@@H](C)NC4=O)c2nc1NC1CC1 [Example 284, (R)-2-(3-(cyclopropylamino)-6-fluoro-2-methylquinoxalin-5-yl)-6-methyl-5,6-dihydropyrrolo[3,4-b]pyrrol-4(1H)-one] | – | – | –
5 | 34.7 | 0.249 | 0.385 | Cc1nc2ccc(F)c(-c3cc4c([nH]3)[C@H](C)NC4=O)c2nc1NC1(C)CC1 [Example 380, (S)-2-(6-fluoro-2-methyl-3-((1-methylcyclopropyl)amino)quinoxalin-5-yl)-6-methyl-5,6-dihydropyrrolo[3,4-b]pyrrol-4(1H)-one] | – | – | –
6 | 769 | 2.54 | 3.62 | CC(C)(C)Nc1ncc2cccc(-c3cc4c([nH]3)CCNC4=O)c2n1 [Example 374, 2-(2-(tert-butylamino)quinazolin-8-yl)-6,7-dihydro-1H-pyrrolo[3,2-c]pyridin-4(5H)-one] | – | – | –
7 | 1000 | 0.625 | 0.874 | Cc1nc2cccc(-c3[nH]c4c(c3Br)C(=O)NCC4)c2nc1NC(C)(C)C [Example 349, 3-bromo-2-(3-(tert-butylamino)-2-methyl-5-quinoxalinyl)-1,5,6,7-tetrahydro-4H-pyrrolo[3,2-c]pyridin-4-one] | – | – | –
8 | 1510 | 2.31 | 3.38 | Cc1nc2cccc(-c3[nH]c4c(c3C)C(=O)NCC4)c2nc1NC(C)(C)C [Example 350, 2-(3-(tert-butylamino)-2-methyl-5-quinoxalinyl)-3-methyl-1,5,6,7-tetrahydro-4H-pyrrolo[3,2-c]pyridin-4-one] | – | – | –
9 | 3880 | 21.6 | 8.9 | Cc1nc2cccc(-c3cc(C(N)=O)n[nH]3)c2nc1NC(C)(C)C [Example 467, 5-(3-(tert-butylamino)-2-methylquinoxalin-5-yl)-1H-pyrazole-3-carboxamide] | – | – | –
10 | 6920 | 71.9 | 54.6 | CCOc1cnc2cccc(-c3cc4c([nH]3)CCNC4=O)c2n1 [Example 337, 2-(3-ethoxy-5-quinoxalinyl)-1,5,6,7-tetrahydro-4H-pyrrolo[3,2-c]pyridin-4-one] | – | – | –
11 | > 40000 | 94.6 | 163 | Cc1nc2cccc(-c3cc4c([nH]3)CCNC4=O)c2nc1NC(C)c1cnccn1 (stereo not drawn) [Example 322, 2-(2-methyl-3-((1-(pyrazin-2-yl)ethyl)amino)quinoxalin-5-yl)-6,7-dihydro-1H-pyrrolo[3,2-c]pyridin-4(5H)-one] | – | – | –
12 | 119 | 0.259 | 0.275 | CCC(C)(C)Nc1nc2c(-c3cc4c([nH]3)CCNC4=O)c(F)ccc2nc1C [Example 375, 2-(6-fluoro-2-methyl-3-(tert-pentylamino)quinoxalin-5-yl)-6,7-dihydro-1H-pyrrolo[3,2-c]pyridin-4(5H)-one] | – | – | –
13 | > 40000 | 11.5 | 16.4 | CC(C)Nc1nc2c(-c3cc4c([nH]3)CCNC4=O)cccc2c(=O)n1-c1cccnc1 [Example 403, 2-((1-methylethyl)amino)-8-(4-oxo-4,5,6,7-tetrahydro-1H-pyrrolo[3,2-c]pyridin-2-yl)-3-(3-pyridinyl)-4(3H)-quinazolinone] | – | – | –
14 | 8730 | 212 | 167 | Cc1nc2cccc(-c3cc4c([nH]3)CCNC4=O)c2nc1-c1ccccn1 [Example 429, 2-(2-Methyl-3-(pyridin-2-yl)quinoxalin-5-yl)-6,7-dihydro-1H-pyrrolo[3,2-c]pyridin-4(5H)-one] | – | – | –
15 | 3190 | 21.6 | 32.5 | Cc1nc2cccc(-c3cc4c([nH]3)[C@@H](C)NC4=O)c2nc1O[C@@H](C)C(F)(F)F [Example 452, (6R)-6-methyl-2-(2-methyl-3-((1S)-2,2,2-trifluoro-1-methylethoxy)-5-quinoxalinyl)-5,6-dihydropyrrolo[3,4-b]pyrrol-4(1H)-one] | – | – | –
16 | 2730 | 1 | 2.25 | CC(C)(C)Nc1nc2c(-c3cc4c([nH]3)CCNC4=O)cccc2nc1Cl [Example 345, 2-(3-(tert-butylamino)-2-chloro-5-quinoxalinyl)-1,5,6,7-tetrahydro-4H-pyrrolo[3,2-c]pyridin-4-one] | – | – | –
17 | 51.8 | 0.534 | 0.902 | Cc1nc2ccc(F)c(-c3cc4c([nH]3)[C@H](C)NC4=O)c2nc1NC1CC1 [Example 285, (S)-2-(3-(cyclopropylamino)-6-fluoro-2-methylquinoxalin-5-yl)-6-methyl-5,6-dihydropyrrolo[3,4-b]pyrrol-4(1H)-one] | – | – | –
18 | 21200 | 86 | 189 | Cc1nc2cccc(-c3cc4n(c3)C(=O)NC4)c2nc1NC(C)(C)C [Example 421, 6-(3-(tert-butylamino)-2-methylquinoxalin-5-yl)-1H-pyrrolo[1,2-c]imidazol-3(2H)-one] | – | – | –
19 | 657 | 1.61 | 2.54 | Cc1nc2cccc(-c3cc4c([nH]3)CCNC4=S)c2nc1NC(C)(C)C [Example 292, 2-(3-(tert-butylamino)-2-methylquinoxalin-5-yl)-6,7-dihydro-1H-pyrrolo[3,2-c]pyridine-4(5H)-thione] | – | – | –
20 | 54.6 | 0.325 | 0.218 | COCCn1c(NC(C)(C)C)nc2c(-c3cc4c([nH]3)CNC4=O)cccc2c1=O [Example 458, 2-(tert-butylamino)-3-(2-methoxyethyl)-8-(4-oxo-1,4,5,6-tetrahydropyrrolo[3,4-b]pyrrol-2-yl)-4(3H)-quinazolinone] | – | – | –
21 | 527 | 3.4 | 1.73 | Cc1nc2cccc(-c3cc4c([nH]3)CCNC4=O)c2nc1N[C@H]1C[C@H](O)C1 [Example 442, 2-(3-((trans-3-Hydroxycyclobutyl)amino)-2-methylquinoxalin-5-yl)-6,7-dihydro-1H-pyrrolo[3,2-c]pyridin-4(5H)-one] | – | – | –
22 | > 40000 | 37.5 | 258 | Cc1nc2cccc(-c3cc4c([nH]3)[C@@H](C)NC4=O)c2nc1O[C@H](C)C(F)(F)F [Example 453, (6R)-6-methyl-2-(2-methyl-3-((1R)-2,2,2-trifluoro-1-methylethoxy)-5-quinoxalinyl)-5,6-dihydropyrrolo[3,4-b]pyrrol-4(1H)-one] | – | – | –
23 | > 40000 | 27.9 | 20.1 | CC(=O)Nc1nc2c(-c3cc4c([nH]3)CCNC4=O)cccc2nc1C [Example 445, N-(3-methyl-8-(4-oxo-4,5,6,7-tetrahydro-1H-pyrrolo[3,2-c]pyridin-2-yl)quinoxalin-2-yl)acetamide] | – | – | –

Row | Structure (SMILES) | IC50 (KMS-12-BM cell lines; [1]) [nM] | IC50 (Pim-1; [2]) [nM] | IC50 (Pim-2; [3]) [nM] | IC50 (Pim-2) [nM] | IC50 (Pim-1) [nM] | IC50 (KMS-12-BM cell lines; KMS-12-BM) [nM]
24 | Cc1nc2cccc(-c3cc4c([nH]3)C3(CC3)NC4=O)c2nc1NCC(F)F [Example 331, 2′-(3-((2,2-difluoroethyl)amino)-2-methylquinoxalin-5-yl)-1′H-spiro[cyclopropane-1,6′-pyrrolo[3,4-b]pyrrol]-4′(5′H)-one] | 130 | 1.67 | 1.12 | – | – | –
25 | Cc1nc2cccc(-c3cc4n(n3)CCNC4=O)c2nc1NC(C)(C)C [Example 471, 2-(3-(tert-butylamino)-2-methylquinoxalin-5-yl)-6,7-dihydropyrazolo[1,5-a]pyrazin-4(5H)-one] | 15500 | 164 | – | 593 | – | –
26 | Cc1nc2cccc(-c3cc4c(=O)[nH]nc(C)c4[nH]3)c2nc1NC(C)(C)C [Example 416, 2-(3-(tert-butylamino)-2-methylquinoxalin-5-yl)-7-methyl-1H-pyrrolo[2,3-d]pyridazin-4(5H)-one] | 2950 | – | – | 15.8 | 7.63 | –
27 | Cc1nc2cccc(-c3cc4c([nH]3)C3(CC3)NC4=O)c2nc1NC1CC1 [Example 325, 2′-(3-(cyclopropylamino)-2-methyl-5-quinoxalinyl)-1′H-spiro[cyclopropane-1,6′-pyrrolo[3,4-b]pyrrol]-4′(5′H)-one] | – | – | 0.242 | – | 0.293 | 68.8
28 | Cc1nc2cccc(-c3cc4c([nH]3)C3(CC3)NC4=O)c2nc1NC1(C)CC1 [Example 329, 2′-(2-methyl-3-((1-methylcyclopropyl)amino)-5-quinoxalinyl)-1′H-spiro[cyclopropane-1,6′-pyrrolo[3,4-b]pyrrol]-4′(5′H)-one] | 26.2 | – | – | 0.39 | 0.334 | –
29 | Cc1nc2cccc(-c3cc4c([nH]3)C3(CCOCC3)NC4=O)c2nc1NC(C)(C)C [Example 409, 2′-(3-(tert-butylamino)-2-methyl-5-quinoxalinyl)-2,3,5,6-tetrahydro-1′H-spiro[pyran-4,6′-pyrrolo[3,4-b]pyrrol]-4′(5′H)-one] | 5760 | 31.7 | 62.6 | – | – | –
